In patent US20250084087A1, “BICYCLIC HETEROCYCLES AS MRGPRX2 ANTAGONISTS” (Incyte Corporation, priority 2023, published 2025):

Tests used:
Assay type in all cases: cell-based
MRGPRX2 [1] = target: T1, MRGPRX2 (Homo sapiens, UniProt Q96LB1); test: MRGPRX2 β-Arrestin recruitment assay (PathHunter); design: host or cells: CHO-K1 (PathHunter); conditions: PathHunter CHO-K1 MRGPRX2 β-Arrestin cell line; agonist Cortistatin 14 0.25 μM
T1 sequence (Q96LB1 1-330): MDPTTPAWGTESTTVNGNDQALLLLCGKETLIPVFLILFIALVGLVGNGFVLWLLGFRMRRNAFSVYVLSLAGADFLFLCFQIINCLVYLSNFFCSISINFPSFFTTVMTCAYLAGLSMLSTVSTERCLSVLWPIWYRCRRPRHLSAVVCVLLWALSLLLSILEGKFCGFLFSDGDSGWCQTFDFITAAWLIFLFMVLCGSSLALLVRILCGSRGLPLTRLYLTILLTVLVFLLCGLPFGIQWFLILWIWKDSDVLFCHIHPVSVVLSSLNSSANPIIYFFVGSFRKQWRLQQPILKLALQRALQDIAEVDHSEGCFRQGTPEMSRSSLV
How it was run: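 CHO-K1 PathHunter cells co-expressing ProLink-tagged MRGPRX2 and enzyme-acceptor-tagged β-arrestin were preincubated with compound 1 h at 37° C., then stimulated with cortistatin-14 (0.25 μM final) for 90 min. Enzyme-complementation luminescence read after 1 h detection; data normalized to DMSO and reference antagonist, IC50 from 3- or 4-parameter Hill fit.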

MRGPRX2 [2] = target: T1, MRGPRX2; test: MRGPRX2 FLIPR calcium mobilization assay; design: host or cells: CHO-K1; conditions: CHO-K1 cells stably expressing human MRGPRX2; Ca2+ release; agonist Cortistatin-14 at EC80
Experimental: Example A. MRGPRX2 FLIPR Calcium Mobilization Assay
Chinese hamster ovary (CHO-K1) cells stably expressing human MRGPRX2 were purchased from Genescript (Piscataway, NJ). The cells were maintained in culture medium (Ham's F-12K) containing 10% (v/v) FBS, 200 μg/mL Zeocin, 100 units/mL penicillin G and 100 μg/mL streptomycin (Life Technologies, Carlsbad, CA). For the assay, the cells were harvested and resuspended with culture medium without Zeocin before plating at 8000 cells per well in 20 μL in 384-well black clear bottom cell culture plates (VWR, Radnor, PA). After 24 hour culture at 37° C. and 5% CO2, the cells were loaded with 20 μL/well of calcium dye (FLIPR Calcium 6 Assay Kit, Molecular Devices, San Jose, CA) diluted in loading buffer (1× Hank's Balanced Salt Solution (HBSS), 5 mM probenecid, 20 mM 4-(2-hydroxyethyl)-1-piperazineethanesulfonic acid (HEPES), pH 7.4, VWR, Radnor, PA) followed with 45 min. incubation at 37° C. and 40 min. at r.t. in the dark. Cells were then treated with the addition of 10 uL/well test compounds with a range of increasing concentrations diluted in the assay buffer (1×HBSS, 20 mM HEPES, pH 7.4, VWR, Radnor, PA) with FLIPR Penta (Molecular Devices. San Jose, CA) and incubated for 30 min. at r.t. Ca^2+ release was measured with FLIPR Penta with 10 seconds basal fluorescence measurement, then 12.5 μL of 5× agonist Cortistatin-14 (Tocris, Minneapolis, MN) at final concentration corresponding to the EC80 were added followed with continued fluorescence signal monitoring for an additional 110 seconds. The base line adjusted (median of first 10s base line) max value of the Relative Fluorescence Unit (RFU) was plotted against compound concentrations. Wells with no compound were served as the positive controls, and wells with high concentration of reference antagonist were used as negative controls. IC50 curves were globally fitted with 3- or 4-parameter Hill equation in a Genedata Screener (Genedata Basel, Switzerland).

MRGPRX2 [3] = target: T1, MRGPRX2; test: MRGPRX2 IP1 HTRF assay; design: host or cells: CHO-K1; conditions: CHO-K1 cells stably expressing human MRGPRX2; IP1 accumulation; agonist Cortistatin 14 1 μM
How it was run: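 CHO-K1 cells stably expressing human MRGPRX2, preincubated with compound 1 h at 37 °C, then stimulated with 1 μM Cortistatin 14 for 1 h. IP1 measured by HTRF against standard curve, normalized to DMSO and reference antagonist controls; IC50 from 3- or 4-parameter Hill fit.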

IC50 (MRGPRX2 [1])	IC50 (MRGPRX2 [2])	IC50 (MRGPRX2 [3])	SMILES
100 to 1000 nM	0.1 to 100 nM	0.1 to 100 nM	NS(=O)(=O)N1CC[C@](CNc2cc(C(F)(F)F)nc3cc(C(F)(F)F)nn23)(c2ccccc2)C1 (stereo in doubt) [Example 3, 3-(((2,5-Bis(trifluoromethyl)pyrazolo[1,5-a]pyrimidin-7-yl)amino)methyl)-3-phenylpyrrolidine-1-sulfonamide]
0.1 to 100 nM	0.1 to 100 nM	0.1 to 100 nM	NC(=O)N1CCC(CNc2cc(C(F)(F)F)nc3cc(C(F)(F)F)nn23)(c2ccccc2)C1 (stereo not shown) [Example 4, 3-(((2,5-Bis(trifluoromethyl)pyrazolo[1,5-a]pyrimidin-7-yl)amino)methyl)-3-phenylpyrrolidine-1-carboxamide]
0.1 to 100 nM	0.1 to 100 nM	0.1 to 100 nM	NS(=O)(=O)N1CCC(CNc2cc(C(F)(F)F)nc3cc(C(F)(F)F)nn23)(c2ccccc2)CC1 [Example 6, 4-(((2,5-Bis(trifluoromethyl)pyrazolo[1,5-a]pyrimidin-7-yl)amino)methyl)-4-phenylpiperidine-1-sulfonamide]
0.1 to 100 nM	0.1 to 100 nM	100 to 1000 nM	Cc1cc2nc(C(F)(F)F)cc(NCC3(c4ccccc4)CCNCC3)n2n1 [Example 8, 2-Methyl-N-((4-phenylpiperidin-4-yl)methyl)-5-(trifluoromethyl)pyrazolo[1,5-a]pyrimidin-7-amine]
	0.1 to 100 nM	0.1 to 100 nM	CNC(=O)N1CCC(CNc2cc(Cl)cc3nc(C(F)(F)F)cn23)(c2ccccc2)CC1 [Example 27, 4-(((7-Chloro-2-(trifluoromethyl)imidazo[1,2-a]pyridin-5-yl)amino)methyl)-N-methyl-4-phenylpiperidine-1-carboxamide]
	0.1 to 100 nM	0.1 to 100 nM	CNC(=O)N1CCC(CNc2cc(C)cc3nc(C(F)(F)F)cn23)(c2ccccc2)CC1 [Example 28, N-Methyl-4-(((7-methyl-2-(trifluoromethyl)imidazo[1,2-a]pyridin-5-yl)amino)methyl)-4-phenylpiperidine-1-carboxamide]
	0.1 to 100 nM	100 to 1000 nM	CNC(=O)N1CCC(CNc2cccc3nc(C(C)C)cn23)(c2ccccc2)CC1 [Example 29, 4-(((2-Isopropylimidazo[1,2-a]pyridin-5-yl)amino)methyl)-N-methyl-4-phenylpiperidine-1-carboxamide]
	0.1 to 100 nM	0.1 to 100 nM	NS(=O)(=O)N1CC(CNc2cccc3nc(C(F)(F)F)cn23)(c2ccc(F)cc2)C1 [Example 34, 3-(4-Fluorophenyl)-3-(((2-(trifluoromethyl)imidazo[1,2-a]pyridin-5-yl)amino)methyl)azetidine-1-sulfonamide]
	0.1 to 100 nM	0.1 to 100 nM	NC(=O)N1CC(CNc2cccc3nc(C(F)(F)F)cn23)(c2ccc(F)cc2)C1 [Example 35, 3-(4-Fluorophenyl)-3-(((2-(trifluoromethyl)imidazo[1,2-a]pyridin-5-yl)amino)methyl)azetidine-1-carboxamide]
	0.1 to 100 nM	0.1 to 100 nM	FC(F)(F)c1cn2c(NCC3(c4ccc(Br)cc4)CCC3)cccc2n1 [Example 38, N-((1-(4-Bromophenyl)cyclobutyl)methyl)-2-(trifluoromethyl)imidazo[1,2-a]pyridin-5-amine]
	0.1 to 100 nM	100 to 1000 nM	Cc1cc2nc(C(F)(F)F)cc(NCC3(c4ccccc4)CCOC3)n2n1 (stereo not shown) [Example 77, 2-Methyl-N-((3-phenyltetrahydrofuran-3-yl)methyl)-5-(trifluoromethyl)pyrazolo[1,5-a]pyrimidin-7-amine]
	100 to 1000 nM	> 1000 nM	N#Cc1cc2nc(Cl)cc(NCC3(c4ccccc4)CCNCC3)n2n1 [Example 104, 5-Chloro-7-(((4-phenylpiperidin-4-yl)methyl)amino)pyrazolo[1,5-a]pyrimidine-2-carbonitrile]
